Experimental data: ChEMBL document CHEMBL5375995, “Discovery and Mechanistic Study of Novel Mycobacterium tuberculosis ClpP1P2 Inhibitors” (J Med Chem, 2023)
Calls of active or inactive are those of the source. No cut-off for these calls is given here.

Tests used:
[1] = Selectivity index, ratio of IC50 for full-length Staphylococcus aureus ClpP complex/Escherichia coli ClpX delta N mutant (62 to 425 residues) expressed in Escherichia coli BL21(DE3) using FITC-casein as substrate to IC50 for N-terminal His6-SUMO-tagged Mtb ClpP1 (7 to 200 residues)/ClpP2 (13 to 214 residues) complex expressed in Escherichia coli BL21(DE3)
ClpP1P2 [2] = biological target: ClpP1P2 (Mycobacterium tuberculosis (strain ATCC 25618 / H37Rv), UniProt P9WPC3+P9WPC5, I71F); assay: Inhibition of Mtb ClpP1 I71F mutant expressed in Escherichia coli BL21(DE3)
[3] = system: ClpP1P2 (Mycobacterium tuberculosis (strain ATCC 25618 / H37Rv)), P9WPC5+P9WPC3 [I71V]; assay: Inhibition of Mtb ClpP1 I71V mutant expressed in Escherichia coli BL21(DE3)
ClpP1P2 [4] = biological target: ClpP1P2 (Mycobacterium tuberculosis (strain ATCC 25618 / H37Rv), UniProt P9WPC3+P9WPC5, S72T); assay: Inhibition of Mtb ClpP1 S72T mutant expressed in Escherichia coli BL21(DE3)
[5] = system: ClpP1P2 (Mycobacterium tuberculosis (strain ATCC 25618 / H37Rv)), P9WPC5+P9WPC3 [M75A]; assay: Inhibition of Mtb ClpP1 M75A mutant expressed in Escherichia coli BL21(DE3)
[6] = system: ClpP1P2 (Mycobacterium tuberculosis (strain ATCC 25618 / H37Rv)), P9WPC5+P9WPC3 [M75F]; assay: Inhibition of Mtb ClpP1 M75F mutant expressed in Escherichia coli BL21(DE3)
[7] = system: ClpP1P2 (Mycobacterium tuberculosis (strain ATCC 25618 / H37Rv)), P9WPC5+P9WPC3 [M75L]; assay: Inhibition of Mtb ClpP1 M75L mutant expressed in Escherichia coli BL21(DE3)
[8] = system: ClpP1P2 (Mycobacterium tuberculosis (strain ATCC 25618 / H37Rv)), P9WPC5+P9WPC3 [M95A]; assay: Inhibition of Mtb ClpP1 M95A mutant expressed in Escherichia coli BL21(DE3)
[9] = system: ClpP1P2 (Mycobacterium tuberculosis (strain ATCC 25618 / H37Rv)), P9WPC5+P9WPC3 [M95Q]; assay: Inhibition of Mtb ClpP1 M95Q mutant expressed in Escherichia coli BL21(DE3)
ClpP1P2 [10] = biological target: ClpP1P2 (Mycobacterium tuberculosis (strain ATCC 25618 / H37Rv), UniProt P9WPC3+P9WPC5, M95L); assay: Inhibition of Mtb ClpP1 M95L mutant expressed in Escherichia coli BL21(DE3)
ClpP1P2 [11] = biological target: ClpP1P2 (Mycobacterium tuberculosis (strain ATCC 25618 / H37Rv), UniProt P9WPC3+P9WPC5, M95W); assay: Inhibition of Mtb ClpP1 M95W mutant expressed in Escherichia coli BL21(DE3)
[12] = system: ClpP1P2 (Mycobacterium tuberculosis (strain ATCC 25618 / H37Rv)), P9WPC5+P9WPC3 [M95S]; assay: Inhibition of Mtb ClpP1 M95S mutant expressed in Escherichia coli BL21(DE3)
ClpP1P2 [13] = biological target: ClpP1P2 (Mycobacterium tuberculosis (strain ATCC 25618 / H37Rv), UniProt P9WPC3+P9WPC5, H117N); assay: Inhibition of Mtb ClpP1 H117N mutant expressed in Escherichia coli BL21(DE3)
ClpP1P2 [14] = biological target: ClpP1P2 (Mycobacterium tuberculosis (strain ATCC 25618 / H37Rv), UniProt P9WPC3+P9WPC5, H117A); assay: Inhibition of Mtb ClpP1 H117A mutant expressed in Escherichia coli BL21(DE3)
[15] = system: ClpP1P2 (Mycobacterium tuberculosis (strain ATCC 25618 / H37Rv)), P9WPC5+P9WPC3 [R119E]; assay: Inhibition of Mtb ClpP1 R119E mutant expressed in Escherichia coli BL21(DE3)
[16] = system: ClpP1P2 (Mycobacterium tuberculosis (strain ATCC 25618 / H37Rv)), P9WPC5+P9WPC3 [R119Q]; assay: Inhibition of Mtb ClpP1 R119Q mutant expressed in Escherichia coli BL21(DE3)
ClpP1P2 [17] = biological target: ClpP1P2 (Mycobacterium tuberculosis (strain ATCC 25618 / H37Rv), UniProt P9WPC3+P9WPC5, R119S); assay: Inhibition of Mtb ClpP1 R119S mutant expressed in Escherichia coli BL21(DE3)
ClpP1P2 [18] = biological target: ClpP1P2 (Mycobacterium tuberculosis (strain ATCC 25618 / H37Rv), UniProt P9WPC3+P9WPC5, Q142H); assay: Inhibition of Mtb ClpP1 Q142H mutant expressed in Escherichia coli BL21(DE3)
ClpP1P2 [19] = biological target: ClpP1P2 (Mycobacterium tuberculosis (strain ATCC 25618 / H37Rv), UniProt P9WPC3+P9WPC5, Q142R); assay: Inhibition of Mtb ClpP1 Q142R mutant expressed in Escherichia coli BL21(DE3)
[20] = system: ClpP1P2 (Mycobacterium tuberculosis (strain ATCC 25618 / H37Rv)), P9WPC5+P9WPC3 [I146M]; assay: Inhibition of Mtb ClpP1 I146M mutant expressed in Escherichia coli BL21(DE3)
[21] = system: ClpP1P2 (Mycobacterium tuberculosis (strain ATCC 25618 / H37Rv)), P9WPC5+P9WPC3 [I146V]; assay: Inhibition of Mtb ClpP1 I146V mutant expressed in Escherichia coli BL21(DE3)
ClpP1P2 [22] = biological target: ClpP1P2 (Mycobacterium tuberculosis (strain ATCC 25618 / H37Rv), UniProt P9WPC3+P9WPC5, I146T); assay: Inhibition of Mtb ClpP1 I146T mutant expressed in Escherichia coli BL21(DE3)
ClpP1P2 [23] = biological target: ClpP1P2 (Mycobacterium tuberculosis (strain ATCC 25618 / H37Rv), UniProt P9WPC3+P9WPC5, I146L); assay: Inhibition of Mtb ClpP1 I146L mutant expressed in Escherichia coli BL21(DE3)
[24] = system: ClpP1P2 (Mycobacterium tuberculosis (strain ATCC 25618 / H37Rv)), P9WPC5+P9WPC3 [E149L]; assay: Inhibition of Mtb ClpP1 E149L mutant expressed in Escherichia coli BL21(DE3)
ClpP1P2 [25] = biological target: ClpP1P2 (Mycobacterium tuberculosis (strain ATCC 25618 / H37Rv), UniProt P9WPC3+P9WPC5, E149R); assay: Inhibition of Mtb ClpP1 E149R mutant expressed in Escherichia coli BL21(DE3)
ClpP1P2 [26] = biological target: ClpP1P2 (Mycobacterium tuberculosis (strain ATCC 25618 / H37Rv), UniProt P9WPC3+P9WPC5, E149K); assay: Inhibition of Mtb ClpP1 E149K mutant expressed in Escherichia coli BL21(DE3)
ClpP1P2 [27] = biological target: ClpP1P2 (Mycobacterium tuberculosis (strain ATCC 25618 / H37Rv), UniProt P9WPC3+P9WPC5, E149Q); assay: Inhibition of Mtb ClpP1 E149Q mutant expressed in Escherichia coli BL21(DE3)
ClpP1P2 [28] = biological target: ClpP1P2 (Mycobacterium tuberculosis (strain ATCC 25618 / H37Rv), UniProt P9WPC3+P9WPC5, E149T); assay: Inhibition of Mtb ClpP1 E149T mutant expressed in Escherichia coli BL21(DE3)
ClpP1P2 [29] = biological target: ClpP1P2 (Mycobacterium tuberculosis (strain ATCC 25618 / H37Rv), UniProt P9WPC3+P9WPC5, W174I); assay: Inhibition of Mtb ClpP1 W174I mutant expressed in Escherichia coli BL21(DE3)
[30] = system: ClpP1P2 (Mycobacterium tuberculosis (strain ATCC 25618 / H37Rv)), P9WPC5+P9WPC3 [W174F]; assay: Inhibition of Mtb ClpP1 W174F mutant expressed in Escherichia coli BL21(DE3)
ClpP1P2 [31] = biological target: ClpP1P2 (Mycobacterium tuberculosis (strain ATCC 25618 / H37Rv), UniProt P9WPC3+P9WPC5, W174A); assay: Inhibition of Mtb ClpP1 W174A mutant expressed in Escherichia coli BL21(DE3)

SMILES: COc1cc2c(Oc3ccc4[nH]c(C)cc4c3F)ncnc2cc1OCCCN1CCCC1 [CEDIRANIB]
- Ratio IC50 [1]: 9.6
- IC50 (ClpP1P2 [2]): 3.4 µM
- inhibition [3]: inactive
- IC50 (ClpP1P2 [4]): > 54.5 µM
- inhibition [5]: Active
- inhibition [6]: inactive
- inhibition [7]: inactive
- inhibition [8]: Active
- inhibition [9]: inactive
- IC50 (ClpP1P2 [10]): 23.7 µM
- IC50 (ClpP1P2 [11]): 7.5 µM
- inhibition [12]: inactive
- IC50 (ClpP1P2 [13]): > 50 µM
- IC50 (ClpP1P2 [14]): 4.4 µM
- inhibition [15]: inactive
- inhibition [16]: inactive
- IC50 (ClpP1P2 [17]): 42.2 µM
- IC50 (ClpP1P2 [18]): 14.4 µM
- IC50 (ClpP1P2 [19]): 9.5 µM
- inhibition [20]: inactive
- inhibition [21]: inactive
- IC50 (ClpP1P2 [22]): 5.1 µM
- IC50 (ClpP1P2 [23]): 9.7 µM
- inhibition [24]: inactive
- IC50 (ClpP1P2 [25]): 41.8 µM
- IC50 (ClpP1P2 [26]): > 100 µM
- IC50 (ClpP1P2 [27]): 6.3 µM
- IC50 (ClpP1P2 [28]): 7.6 µM
- IC50 (ClpP1P2 [29]): 12.8 µM
- inhibition [30]: inactive
- IC50 (ClpP1P2 [31]): 20.2 µM
